# Data taken from patent US20120035187A1 (priority 2009, published 2012).
# Marks after values point to notes of the source that are not given here.
# How the values were obtained:
# Assay type in all cases: in vivo, hamster
# [1] = system: hamsters with cerebellar ataxia; test: Histological evaluation of cerebellum of hamsters with cerebellar ataxia; details: 10-weeks of age, 25 μg/kg body weight
# From the text: (§1) Since NK-4 was confirmed to have a neurodegenerative inhibitory action in Experiment 1, hamsters with cerebellar ataxia (cerebellar ataxia is called “cerebellar A” and hamsters with cerebellar ataxia are called “hamsters with cerebellar A”, hereinafter) as a suitable model for human neurodegenerative diseases (e.g., spinal cerebellar degeneration) were subjected to examine the influence of NK-4 administration on their behaviors and brain tissues. Twenty-five hamsters with natural mutation (Nna1 inhibition), which are known to lose Purkinje's cells after three-weeks of age and then induce a spontaneous onset of kinetic motor ataxia after seven-weeks of age (see Akita K. et al., “J. Neurogenetics”, Vol. 21, pp. 19-29, 2007), had been fed at Hayashibara Biochemical Laboratories., Inc., Okayama, Japan, were randomly allocated to the test groups 1 to 5, five heads in each group, as shown in Table 2. Prior to the onset of cerebellar A (at three-weeks of age), PBS was started to administer to the hamsters in the test group 1 at a dose of 10 ml/kg/day. Prior to the onset of cerebellar A (at three-weeks of age), NK-4 was started to be administered to the hamsters in the test groups 2 to 4 at a daily dose of 20 μg/kg, 100 μg/kg or 500 μg/kg. “IGF-1, human, a product name of insulin-like growth factor, commercialized by Assaypro LLC, MO, USA. These administered ingredients were intraperitoneally administered daily to hamsters once a day up to 10-weeks of age. The degree of symptom of cerebellar A and the improvement effect on the symptom by NK-4 were evaluated with an index of improvement in motor coordination of hamsters by conducting once a week the later described rotarod test and the slant tolerance test. At the age of 10-weeks, the hamsters were subjected to counting the falling down frequency and extracted their brains, which were then histologically evaluated. In parallel, the concentration of glutamic acid in the bloods and cerebrospinal fluids (CSF) of the hamsters was assayed. As a test group 6, five normal hamsters, with the same age as the hamsters with cerebellar A used in the test groups 1 to 5, were provided and tested similarly as the hamsters with cerebellar A in such a manner of intraperitoneally administering PBS to them at a dose of 10 ml/kg/day once a day up to 10-weeks of age.
# Hamsters, 10-weeks of age, after completion of test on coordinated movement such as a confirmation of falling down frequency were intraperitoneally received 50 mg/kg pentobarbital, bled from their postcavas to let them die, and extracted their cerebra and cerebella, followed by fixing them with a 10% by volume of formalin solution. The resulting cerebra and cerebella were photographed with a digital camera apart from a prescribed high position and measured diameters in sagittal and horizontal directions for each photograph. The volumes of cerebra and cerebella were respectively determined by calculating with the formula, (length of sagittal direction)^2×(length of horizontal direction)×0.5; and the data from five heads in each group were averaged. The hamsters with cerebella A used in this experiment are known to reduce cell density of Purkinje's cells and granular cells. Cerebellar slices, which had been cut out in sagittal direction, were stained with hematoxylin-eosin stain, and microscopically observed to count the total number of Purkinje's cells within a Purkinje's cell layer ([…] I to X) and the number of granular cells per unit area, and to confirm subjects in which demyelination was observed within their cerebellar white matters. The results are in Table 5 in parallel.
# [2] = system: hamsters with cerebellar ataxia; test: Slant tolerance test in hamsters with cerebellar ataxia; details: cerebellar ataxia hamsters, 25 μg/kg body weight i.p. once a day
# From the text: as §1
# Hamsters were placed on a slope-angle-variable-board while keeping their heads upward, followed by determining the angle for allowing the hamsters to keep staying thereupon for five seconds for use as an endurable-slant-slope-angle test (see Rivlin et al., “J. Neurosurg.”, Vol. 47, pp. 577-581, […]). The initial slope angle was set to 25 degrees and increased by 5 degrees step by step. When a tested hamster in a static condition fell down within five seconds, the slope angle was decreased by one degree step by step, followed by judging the angle that allows the hamster to keep static staying for five seconds, measuring the tolerable slant-slope-angle, and averaging the data for five heads in each group.
# (§2) Similarly as in Experiment 2, 130 hamsters with cerebellar ataxia, born within the same week and 3-weeks of age, were randomly divided into 13 groups, consisting of 10 hamsters, respectively. […] The hamsters (10 heads) in the remaining one group were intraperitoneally administered from their age of 3- to 10-weeks with a sterilized 10% maltose solution (pyrogen-free) in an amount of 0.5 ml/hamster (control) once a day for 56 days At the next day after the end of the administration, body weight of each hamster was weighed, followed by performing rotarod test, slope endurance test, and counting of falling down frequency. The types of compounds applied to each group and the results are in Table 25.
# [3] = system: hamsters with cerebellar ataxia; test: Concentration of glutamic acid in cerebrospinal fluid (CSF); details: 10-weeks of age, 25 μg/kg body weight
# From the text: as §1
# The content of glutamic acid, which is used for synthesizing gamma-amino butyric acid (GABA) as a main excitatory neurotransmitter and inhibitory neurotransmitter that regulate higher-order functions such as memory/learning in mammalian central nervous system, was assayed. In harvesting the brains from the above hamsters, they were blooded from their postcavas, followed by collecting CSF for use in the later described assay for glutamic acid concentration. […]
# [4] = system: hamsters with cerebellar ataxia; test: Falling down frequency of hamsters with cerebellar ataxia; details: cerebellar ataxia hamsters, 10-weeks of age; 25 μg/kg body weight i.p. once a day
# From the text: as §1
# Hamsters, 10-weeks of age, were respectively housed in a breeding cage. Their falling down frequencies within one minute were counted under a macroscopic observation and the data from five heads in each group were averaged. For reference, the hamsters with cerebellar A used in this experiment are known to increase their falling down frequencies after nine weeks of age.
# as §2
# [5] = system: hamsters with cerebellar ataxia; test: Rotarod test in hamsters with cerebellar ataxia; details: for Delayed days until the onset of cerebellar ataxia in hamster: 25 μg/kg body weight; for time (sec) endured until falling from rotarod apparatus: cerebellar ataxia hamsters, 25 μg/kg body weight i.p. once a day
# From the text: as §1
# As an index for coordinated movement, it was used a duration time of hamster's movement to staying on a rotarod by locomotion in synchronization with the turn of the rotarod; placing a hamster on an apparatus with a rotarod (having a diameter of 60 mm, prepared by Hayashibara Biochemical Laboratories, Inc., Okayama, Japan), turning at a constant rate of six rpm, and measuring the time until the hamster falls down from the rotarod (see Fernandez et al., “Proc. Natl. Acad. Sci. USA”, Vol. 95, pp. 1253-1258, 1998). The test was repeated six times for each hamster, where five-times of tests starting from the initiation of the test were made as a preliminary examination, and the time until each hamster fell down from the rotarod (called “falling time”, hereinafter) was measured, followed by averaging the falling times for each group consisting of five heads. The falling time was measured until 180 seconds. Based on the results, the relationship between the age and the falling time for each hamster with cerebellar A (test group 1) administered with PBS was graphed. […]
# Similarly as in Experiment 2, 130 hamsters with cerebellar ataxia, born within the same week and 3-weeks of age, were randomly divided into 13 groups, consisting of 10 hamsters, respectively. […]
# [6] = Body weight of hamsters with cerebellar ataxia during administration; details: compared between groups administered with PBS, NK-4 and IGF-1
substance,measurement,setting,value
"IGF-1: insulin-like growth factor, human, commercialized by Assaypro LLC",Cerebellar volume (mm^3),[1]; cerebellar ataxia hamsters,77.6 ± 6.1* mm^3
same,Number of Purkinje cells (cells),[1]; cerebellar ataxia hamsters,71 ± 16 cells
same,Number of granular cells (cells/20000 μm^2),[1]; cerebellar ataxia hamsters,371 ± 11 cells/20000 μm^2
same,Number of subject (head) with apparent demyelination in cerebellar white matter,[1]; five heads per group,3 head
same,endurable-slant-slope-angle (degree),[2]; 4-Weeks,44.4 ± 0.2 degree
same,endurable-slant-slope-angle (degree),[2]; 5-Weeks,41.8 ± 0.6 degree
same,endurable-slant-slope-angle (degree),[2]; 6-Weeks,40.2 ± 0.7 degree
same,endurable-slant-slope-angle (degree),[2]; 7-Weeks,41.6 ± 0.8 degree
same,endurable-slant-slope-angle (degree),[2]; 8-Weeks,35.6 ± 0.2 degree
same,endurable-slant-slope-angle (degree),[2]; 9-Weeks,35.2 ± 0.6 degree
same,endurable-slant-slope-angle (degree),[2]; 10-Weeks,33.0 ± 0.9 degree
same,Concentration of glutamic acid in cerebrospinal fluid,[3],7.9 ± 2.0 µM
same,Falling down frequency (frequency/min),[4],11.4 ± 0.4 frequency/min
same,Delayed days until the onset of cerebellar ataxia in hamster,[5]; 5-Weeks,1 days
same,Delayed days until the onset of cerebellar ataxia in hamster,[5]; 6-Weeks,8 days
same,Delayed days until the onset of cerebellar ataxia in hamster,[5]; 7-Weeks,1 days
same,Delayed days until the onset of cerebellar ataxia in hamster,[5]; 8-Weeks,1 days
same,Delayed days until the onset of cerebellar ataxia in hamster,[5]; 9-Weeks,0 days
same,Delayed days until the onset of cerebellar ataxia in hamster,[5]; 10-Weeks,0 days
same,time (sec) endured until falling from rotarod apparatus,[5]; 4-Weeks,126 ± 11 s
same,time (sec) endured until falling from rotarod apparatus,[5]; 5-Weeks,63 ± 13 s
same,time (sec) endured until falling from rotarod apparatus,[5]; 6-Weeks,43 ± 11 s
same,time (sec) endured until falling from rotarod apparatus,[5]; 7-Weeks,21 ± 5 s
same,time (sec) endured until falling from rotarod apparatus,[5]; 8-Weeks,9 ± 2 s
same,time (sec) endured until falling from rotarod apparatus,[5]; 9-Weeks,6 ± 1 s
same,time (sec) endured until falling from rotarod apparatus,[5]; 10-Weeks,6 ± 1 s
same,"body weight of hamsters with cerebellar A, weighed once every week up to 10-weeks of age",[6],no significant difference
